Experimental data as given in PubChem BioAssay AID1259407 (Chemical Carcinogenesis Research Information System (CCRIS), 2018).
Activity calls are given as the source filed them. The rule behind the calls is not given here.

Tested on: CCRIS mutagenicity, Ames/micronucleus/aberration tests
Assay: CCRIS mutagenicity studies

Q: `Nc1ccc(S(N)(=O)=O)cc1` was tested. Which mutagenic call (End Point: IN VITRO CHROMOSOMAL ABERRATIONS, Test System: CHINESE HAMSTER OVARY CELLS, Metabolic Activation: NONE) did it give?
A: Its mutagenic call is “inactive; negative”.

Q: And the mutagenic call (End Point: IN VITRO CHROMOSOMAL ABERRATIONS, Test System: CHINESE HAMSTER OVARY CELLS, Metabolic Activation: RAT, LIVER, S-9, AROCLOR 1254)?
A: The mutagenic call was “inactive; negative”.

Q: And the mutagenic call (Test System: AMES SALMONELLA TYPHIMURIUM, Strain/Indicator: TA98, Metabolic Activation: HAMSTER, LIVER, S-9, AROCLOR 1254, Method: STANDARD PLATE)?
A: Its mutagenic call is “inactive; negative”.

Q: And the mutagenic call (Test System: AMES SALMONELLA TYPHIMURIUM, Strain/Indicator: TA98, Metabolic Activation: NONE, Method: STANDARD PLATE)?
A: Its mutagenic call is “inactive; negative”.

Q: What about the mutagenic call (Test System: AMES SALMONELLA TYPHIMURIUM, Strain/Indicator: TA98, Metabolic Activation: RAT, LIVER, S-9, AROCLOR 1254, Method: STANDARD PLATE) of the same compound?
A: Its mutagenic call is “inactive; negative”.

Q: And the mutagenic call (Test System: AMES SALMONELLA TYPHIMURIUM, Strain/Indicator: TA100, Metabolic Activation: HAMSTER, LIVER, S-9, AROCLOR 1254, Method: STANDARD PLATE)?
A: Its mutagenic call is “inactive; negative”.

Q: And the mutagenic call (Test System: AMES SALMONELLA TYPHIMURIUM, Strain/Indicator: TA100, Metabolic Activation: NONE, Method: STANDARD PLATE)?
A: The mutagenic call was “inactive; negative”.

Q: What about the mutagenic call (Test System: AMES SALMONELLA TYPHIMURIUM, Strain/Indicator: TA100, Metabolic Activation: RAT, LIVER, S-9, AROCLOR 1254, Method: STANDARD PLATE) of the same compound?
A: The mutagenic call was “inactive; negative”.

Q: And the mutagenic call (Test System: AMES SALMONELLA TYPHIMURIUM, Strain/Indicator: TA1535, Metabolic Activation: HAMSTER, LIVER, S-9, AROCLOR 1254, Method: STANDARD PLATE)?
A: Its mutagenic call is “inactive; negative”.

Q: What about the mutagenic call (Test System: AMES SALMONELLA TYPHIMURIUM, Strain/Indicator: TA1535, Metabolic Activation: NONE, Method: STANDARD PLATE) of the same compound?
A: Its mutagenic call is “inactive; negative”.

Q: And the mutagenic call (Test System: AMES SALMONELLA TYPHIMURIUM, Strain/Indicator: TA1535, Metabolic Activation: RAT, LIVER, S-9, AROCLOR 1254, Method: STANDARD PLATE)?
A: The mutagenic call was “inactive; negative”.

Q: And the mutagenic call (Test System: AMES SALMONELLA TYPHIMURIUM, Strain/Indicator: TA1537, Metabolic Activation: HAMSTER, LIVER, S-9, AROCLOR 1254, Method: STANDARD PLATE)?
A: Its mutagenic call is “inactive; negative”.

Q: And the mutagenic call (Test System: AMES SALMONELLA TYPHIMURIUM, Strain/Indicator: TA1537, Metabolic Activation: NONE, Method: STANDARD PLATE)?
A: Its mutagenic call is “inactive; negative”.

Q: What about the mutagenic call (Test System: AMES SALMONELLA TYPHIMURIUM, Strain/Indicator: TA1537, Metabolic Activation: RAT, LIVER, S-9, AROCLOR 1254, Method: STANDARD PLATE) of the same compound?
A: The mutagenic call was “inactive; negative”.

Q: What about the mutagenic call (Test System: AMES SALMONELLA TYPHIMURIUM, Strain/Indicator: TA1538, Metabolic Activation: HAMSTER, LIVER, S-9, AROCLOR 1254, Method: STANDARD PLATE) of the same compound?
A: The mutagenic call was “inactive; negative”.

Q: What about the mutagenic call (Test System: AMES SALMONELLA TYPHIMURIUM, Strain/Indicator: TA1538, Metabolic Activation: NONE, Method: STANDARD PLATE) of the same compound?
A: Its mutagenic call is “inactive; negative”.

Q: And the mutagenic call (Test System: AMES SALMONELLA TYPHIMURIUM, Strain/Indicator: TA1538, Metabolic Activation: RAT, LIVER, S-9, AROCLOR 1254, Method: STANDARD PLATE)?
A: The mutagenic call was “inactive; negative”.

Q: And the mutagenic call (Test System: MOUSE LYMPHOMA, Strain/Indicator: L5178Y (TK+/TK-), Metabolic Activation: NONE, Method: SUSPENSION/PLATE)?
A: Its mutagenic call is “inactive; negative”.

Q: What about the mutagenic call (Test System: MOUSE LYMPHOMA, Strain/Indicator: L5178Y (TK+/TK-), Metabolic Activation: RAT, LIVER, S-9, AROCLOR 1254, Method: SUSPENSION/PLATE) of the same compound?
A: Its mutagenic call is “inactive; negative”.

Q: And the mutagenic call (Test System: Mouse lymphoma, Strain/Indicator: L5178Y (tk+/tk-), Metabolic Activation: None, Method: Suspension/plate)?
A: Its mutagenic call is “inactive; negative”.

Q: What about the mutagenic call (Test System: Mouse lymphoma, Strain/Indicator: L5178Y (tk+/tk-), Metabolic Activation: Rat, Liver, S-9, Aroclor 1254, Method: Suspension/plate) of the same compound?
A: The mutagenic call was “inactive; negative”.

Q: What does the source list for `COCc1ccc([N+]#N)cc1`?
A: mutagenic call (Test System: AMES SALMONELLA TYPHIMURIUM, Strain/Indicator: TA102, Metabolic Activation: NONE, Method: STANDARD PLATE): active; positive; mutagenic call (Test System: CHINESE HAMSTER V-79, Strain/Indicator: V-79/6-THIOGUANINE, Metabolic Activation: NONE): active; positive

Q: For `COC(=O)NC(=S)Nc1ccccc1NC(=S)NC(=O)OC`, which mutagenic call (Test System: AMES SALMONELLA TYPHIMURIUM, Strain/Indicator: TA97, Metabolic Activation: HAMSTER, LIVER, S-9, AROCLOR 1254 (10 OR 30%), Method: PREINCUBATION) is on record?
A: Its mutagenic call is “inactive; negative”.

Q: What about the mutagenic call (Test System: AMES SALMONELLA TYPHIMURIUM, Strain/Indicator: TA97, Metabolic Activation: NONE, Method: PREINCUBATION) of the same compound?
A: Its mutagenic call is “inactive; negative”.

Q: What about the mutagenic call (Test System: AMES SALMONELLA TYPHIMURIUM, Strain/Indicator: TA97, Metabolic Activation: RAT, LIVER, S-9, AROCLOR 1254 (10 OR 30%), Method: PREINCUBATION) of the same compound?
A: Its mutagenic call is “inactive; negative”.

Q: And the mutagenic call (Test System: AMES SALMONELLA TYPHIMURIUM, Strain/Indicator: TA98, Metabolic Activation: HAMSTER, LIVER, S-9, AROCLOR 1254 (10 OR 30%), Method: PREINCUBATION)?
A: The mutagenic call was “inactive; negative”.

Q: What about the mutagenic call (Test System: AMES SALMONELLA TYPHIMURIUM, Strain/Indicator: TA98, Metabolic Activation: HAMSTER, LIVER, S-9, AROCLOR 1254 (30%), Method: PREINCUBATION) of the same compound?
A: Its mutagenic call is “active; positive”.

Q: And the mutagenic call (Test System: AMES SALMONELLA TYPHIMURIUM, Strain/Indicator: TA98, Metabolic Activation: NONE, Method: PREINCUBATION)?
A: The mutagenic call was “inactive; negative”.

Q: And the mutagenic call (Test System: AMES SALMONELLA TYPHIMURIUM, Strain/Indicator: TA98, Metabolic Activation: RAT, LIVER, S-9, AROCLOR 1254 (10 OR 30%), Method: PREINCUBATION)?
A: Its mutagenic call is “inactive; negative”.

Q: What about the mutagenic call (Test System: AMES SALMONELLA TYPHIMURIUM, Strain/Indicator: TA98, Metabolic Activation: RAT, LIVER, S-9, AROCLOR 1254 (30%), Method: PREINCUBATION) of the same compound?
A: The mutagenic call was “inactive; negative”.

Q: What about the mutagenic call (Test System: AMES SALMONELLA TYPHIMURIUM, Strain/Indicator: TA100, Metabolic Activation: HAMSTER, LIVER, S-9, AROCLOR 1254 (10 OR 30%), Method: PREINCUBATION) of the same compound?
A: The mutagenic call was “inactive; negative”.

Q: What about the mutagenic call (Test System: AMES SALMONELLA TYPHIMURIUM, Strain/Indicator: TA100, Metabolic Activation: HAMSTER, LIVER, S-9, AROCLOR 1254 (30%), Method: PREINCUBATION) of the same compound?
A: The mutagenic call was “active; positive”.

Q: And the mutagenic call (Test System: AMES SALMONELLA TYPHIMURIUM, Strain/Indicator: TA100, Metabolic Activation: NONE, Method: PREINCUBATION)?
A: The mutagenic call was “inactive; negative”.

Q: What about the mutagenic call (Test System: AMES SALMONELLA TYPHIMURIUM, Strain/Indicator: TA100, Metabolic Activation: RAT, LIVER, S-9, AROCLOR 1254 (10 OR 30%), Method: PREINCUBATION) of the same compound?
A: The mutagenic call was “inactive; negative”.

Q: What about the mutagenic call (Test System: AMES SALMONELLA TYPHIMURIUM, Strain/Indicator: TA1535, Metabolic Activation: HAMSTER, LIVER, S-9, AROCLOR 1254 (10 OR 30%), Method: PREINCUBATION) of the same compound?
A: The mutagenic call was “inactive; negative”.

Q: What about the mutagenic call (Test System: AMES SALMONELLA TYPHIMURIUM, Strain/Indicator: TA1535, Metabolic Activation: NONE, Method: PREINCUBATION) of the same compound?
A: The mutagenic call was “inactive; negative”.

Q: And the mutagenic call (Test System: AMES SALMONELLA TYPHIMURIUM, Strain/Indicator: TA1535, Metabolic Activation: RAT, LIVER, S-9, AROCLOR 1254 (10 OR 30%), Method: PREINCUBATION)?
A: Its mutagenic call is “inactive; negative”.

Q: And the mutagenic call (Test System: AMES SALMONELLA TYPHIMURIUM, Strain/Indicator: TA1537, Metabolic Activation: HAMSTER, LIVER, S-9, AROCLOR 1254 (30%), Method: PREINCUBATION)?
A: Its mutagenic call is “inactive; negative”.

Q: What about the mutagenic call (Test System: AMES SALMONELLA TYPHIMURIUM, Strain/Indicator: TA1537, Metabolic Activation: NONE, Method: PREINCUBATION) of the same compound?
A: Its mutagenic call is “inactive; negative”.

Q: What about the mutagenic call (Test System: AMES SALMONELLA TYPHIMURIUM, Strain/Indicator: TA1537, Metabolic Activation: RAT, LIVER, S-9, AROCLOR 1254 (30%), Method: PREINCUBATION) of the same compound?
A: The mutagenic call was “inactive; negative”.

Q: With `COc1ccccc1NCSC` as the compound, how does the mutagenic call (Test System: AMES SALMONELLA TYPHIMURIUM, Strain/Indicator: TA98, Metabolic Activation: NONE, Method: SPOT TEST) read?
A: Its mutagenic call is “inactive; negative”.

Q: And the mutagenic call (Test System: AMES SALMONELLA TYPHIMURIUM, Strain/Indicator: TA98, Metabolic Activation: RAT, LIVER, S-9, AROCLOR 1254, Method: SPOT TEST)?
A: The mutagenic call was “active; positive”.

Q: What about the mutagenic call (Test System: AMES SALMONELLA TYPHIMURIUM, Strain/Indicator: TA100, Metabolic Activation: NONE, Method: SPOT TEST) of the same compound?
A: Its mutagenic call is “active; positive”.

Q: And the mutagenic call (Test System: AMES SALMONELLA TYPHIMURIUM, Strain/Indicator: TA100, Metabolic Activation: RAT, LIVER, S-9, AROCLOR 1254, Method: SPOT TEST)?
A: The mutagenic call was “active; positive”.

Q: What about the mutagenic call (Test System: AMES SALMONELLA TYPHIMURIUM, Strain/Indicator: TA102, Metabolic Activation: NONE, Method: SPOT TEST) of the same compound?
A: Its mutagenic call is “inactive; negative”.

Q: What about the mutagenic call (Test System: AMES SALMONELLA TYPHIMURIUM, Strain/Indicator: TA102, Metabolic Activation: RAT, LIVER, S-9, AROCLOR 1254, Method: SPOT TEST) of the same compound?
A: The mutagenic call was “active; positive”.
